Tested on: HCV pseudoparticles (genotype 1a HCV E1 and E2 envelope, H77C isolate)
Test: microbe, parasite or virus in culture
Type: cell-based
Details: Hepatitis C virus, Huh-7, 48 h, HCV pseudoparticle infection of Huh7 cells, luciferase 2 days after infection; average of duplicates

How did the EC50 turn out when `CC(C)(Cc1ccc(F)cc1)NC(=O)C(=O)NCC[C@H](NC(=O)c1ccc(Nc2nc(NC3(c4ccc(Cl)cc4)CC3)nc(OCC(F)(F)F)n2)cc1)C(=O)O` [Compound 1340] was run?
The EC50 was 0.1 nM.

For `C[C@H]1[C@H]2C[C@@H](C[C@H]1NC(=O)C(=O)NCC[C@H](NC(=O)c1ccc(Nc3nc(NC4(c5ccc(Cl)cc5)CC4)nc(OCC(F)(F)F)n3)cc1)C(=O)O)C2(C)C` [Compound 1130], which EC50 is on record?
The EC50 was 0.12 nM.

Same assay, conditions: Hepatitis C virus, Huh-7, 48 h, HCV pseudoparticles (genotype 1a, H77C) in Huh7 cells; average of duplicate; luciferase 2 days after infection

Which EC50 does the source give for `N#Cc1ccc(-c2ccc(NC(=O)C(=O)NC/C(=N/C(=O)c3ccc(Nc4nc(NC5(c6ccc(Cl)cc6)CC5)nc(OCC(F)(F)F)n4)cc3)C(=O)O)cc2)cc1` [Compound 3170] here?
The EC50 was 0.63 nM.

With `NC(=O)C(=O)NCC1(CNC(=O)c2ccc(Nc3nc(NC4(c5ccc(Cl)cc5)CC4)nc(OCC(F)(F)F)n3)cc2)CC1` [Compound 3175] as the compound, how does the EC50 read?
Its EC50 is 0.11 nM.

Same assay, conditions: Hepatitis C virus, Huh-7, 48 h, HCV pseudoparticles, Huh7 cells, luciferase 2 days after infection; average of duplicates

With `COC(=O)[C@H](CNC(=O)C(=O)Nc1cccc(-c2ncc[nH]2)c1)NC(=O)c1ccc(Nc2nc(NC3(c4ccc(Cl)cc4)CC3)nc(OCC(F)(F)F)n2)cc1` [Compound 3709] as the compound, how does the EC50 read?
The EC50 was 0.71 nM.

Same assay, conditions: Hepatitis C virus, Huh-7, 48 h, read-out: Activity (EC50 class), HCV pseudoparticle infection of Huh7 cells, luciferase 2 days after infection; EC50 expressed as class A/B

`CC(C)(Cc1ccc(F)cc1)NC(=O)C(=O)NCC[C@H](NC(=O)c1ccc(Nc2nc(NC3(c4ccc(Cl)cc4)CC3)nc(OCC(F)(F)F)n2)cc1)C(=O)O` [Compound 1340] was tested. Which EC50 did it give?
The EC50 was 0.01 to 10 nM.

How did the EC50 turn out when `C[C@H]1[C@H]2C[C@@H](C[C@H]1NC(=O)C(=O)NCC[C@H](NC(=O)c1ccc(Nc3nc(NC4(c5ccc(Cl)cc5)CC4)nc(OCC(F)(F)F)n3)cc1)C(=O)O)C2(C)C` [Compound 1130] was run?
The EC50 was 0.01 to 10 nM.

For `O=C(NC[C@H](NC(=O)c1ccc(Nc2nc(NC3(c4ccc(Cl)cc4)CC3)nc(OCC(F)(F)F)n2)cc1)C(=O)O)C(=O)Nc1cccc(C(F)(F)F)c1` [Compound 1359], which EC50 is on record?
Its EC50 is 0.01 to 10 nM.

Which EC50 does the source give for `COC(=O)[C@H](CNC(=O)C(=O)Nc1cncn1C)NC(=O)c1ccc(Nc2nc(NC3(c4ccc(Cl)cc4)CC3)nc(OCC(F)(F)F)n2)cc1` [Compound 1247] here?
The EC50 was 0.01 to 10 nM.

`Cc1nccn1CCNC(=O)C(=O)NC[C@H](NC(=O)c1ccc(Nc2nc(NC3(c4ccc(Cl)cc4)CC3)nc(OCC(F)(F)F)n2)cc1)C(=O)O` [Compound 1412] was tested. Which EC50 did it give?
Its EC50 is 10 to 1000 nM.

Which EC50 does the source give for `O=C(NCC[C@H](NC(=O)c1ccc(Nc2nc(NC3(c4ccc(Cl)cc4)CC3)nc(OCC(F)(F)F)n2)cc1)C(=O)O)C(=O)Nc1ccc(F)cc1F` [Compound 1502] here?
Its EC50 is 0.01 to 10 nM.

`COC(=O)[C@H](CNC(=O)C(=O)NCc1ccc(OC)cc1OC)NC(=O)c1ccc(Nc2nc(NC3(c4ccc(Cl)cc4)CC3)nc(OCC(F)(F)F)n2)cc1` [Compound 1137] was tested. Which EC50 did it give?
Its EC50 is 0.01 to 10 nM.

`O=C(NC[C@H](NC(=O)c1ccc(Nc2nc(NC3(c4ccc(Cl)cc4)CC3)nc(OCC(F)(F)F)n2)cc1)C(=O)O)C(=O)NC1CCCCC1O` (stereo partly shown) [Compound 1081] was tested. Which EC50 did it give?
The EC50 was 0.01 to 10 nM.

`Cc1ccc(NC(=O)C(=O)NCC2(CNC(=O)c3ccc(Nc4nc(NC5(c6ccc(Cl)cc6)CC5)nc(OCC(F)(F)F)n4)cc3)CC2)cc1` [Compound 1600] was tested. Which EC50 did it give?
The EC50 was 0.01 to 10 nM.

How did the EC50 turn out when `O=C(NCC[C@@H](NC(=O)c1ccc(Nc2nc(NC3(c4ccc(Cl)cc4)CC3)nc(OCC(F)(F)F)n2)cc1)C(=O)O)C(=O)Nc1ccccc1-c1ccccc1` [Compound 1532] was run?
The EC50 was 0.01 to 10 nM.

For `COC(=O)[C@H](CCNC(=O)C(=O)Nc1ccc(O)nc1)NC(=O)c1ccc(Nc2nc(NC3(c4ccc(Cl)cc4)CC3)nc(OCC(F)(F)F)n2)cc1` [Compound 1520], which EC50 is on record?
The EC50 was 0.01 to 10 nM.

`COC(=O)[C@H](CNC(=O)C(=O)NCCc1ccc(OC)cc1)NC(=O)c1ccc(Nc2nc(NC3(c4ccc(Cl)cc4)CC3)nc(OCC(F)(F)F)n2)cc1` [Compound 1287] was tested. Which EC50 did it give?
The EC50 was 0.01 to 10 nM.

How did the EC50 turn out when `CC(C)(C)OC(=O)NC1CCCC(NC(=O)C(=O)NCC[C@H](NC(=O)c2ccc(Nc3nc(NC4(c5ccc(Cl)cc5)CC4)nc(OCC(F)(F)F)n3)cc2)C(=O)O)C1` (stereo partly shown) [Compound 1111] was run?
The EC50 was 0.01 to 10 nM.

Which EC50 does the source give for `COC(=O)[C@@H](CCNC(=O)C(=O)Nc1ccccc1Cl)NC(=O)c1ccc(Nc2nc(NC3(c4ccc(Cl)cc4)CC3)nc(OCC(F)(F)F)n2)cc1` [Compound 1535] here?
Its EC50 is 0.01 to 10 nM.

How did the EC50 turn out when `O=C(NCC[C@H](NC(=O)c1ccc(Nc2nc(NC3(c4ccc(Cl)cc4)CC3)nc(OCC(F)(F)F)n2)cc1)C(=O)O)C(=O)NCC1CC1c1cc(F)ccc1F` (stereo partly shown) [Compound 1442] was run?
The EC50 was 0.01 to 10 nM.

Which EC50 does the source give for `COC(=O)[C@H](CCNC(=O)C(=O)NCc1ccc(OC)cc1OC)NC(=O)c1ccc(Nc2nc(NC3(c4ccc(Cl)cc4)CC3)nc(OCC(F)(F)F)n2)cc1` [Compound 1147] here?
The EC50 was 0.01 to 10 nM.

With `O=C(NCC[C@H](NC(=O)c1ccc(Nc2nc(NC3(c4ccc(Cl)cc4)CC3)nc(OCC(F)(F)F)n2)cc1)C(=O)O)C(=O)NCC1CC1c1cccc2c1OCO2` (stereo partly shown) [Compound 1446] as the compound, how does the EC50 read?
The EC50 was 0.01 to 10 nM.

Which EC50 does the source give for `Cn1ccnc1NC(=O)C(=O)NC[C@H](NC(=O)c1ccc(Nc2nc(NC3(c4ccc(Cl)cc4)CC3)nc(OCC(F)(F)F)n2)cc1)C(=O)O` [Compound 1352] here?
The EC50 was 0.01 to 10 nM.

Same assay, conditions: Hepatitis C virus, Huh-7, 48 h, read-out: Activity (EC50 class), HCV pseudoparticles, Huh7 cells, luciferase 2 days after infection; average of duplicates

With `COC(=O)[C@H](CNC(=O)C(=O)Nc1cccc(-c2ncc[nH]2)c1)NC(=O)c1ccc(Nc2nc(NC3(c4ccc(Cl)cc4)CC3)nc(OCC(F)(F)F)n2)cc1` [Compound 3709] as the compound, how does the EC50 read?
The EC50 was 0.01 to 10 nM.

With `COC(=O)[C@H](CNC(=O)C(=O)Nc1cccc(C(=O)c2ccccc2)c1)NC(=O)c1ccc(Nc2nc(NC3(c4ccc(Cl)cc4)CC3)nc(OCC(F)(F)F)n2)cc1` [Compound 3692] as the compound, how does the EC50 read?
The EC50 was 0.01 to 10 nM.

How did the EC50 turn out when `Cc1ccc(COc2nc(Nc3ccc(C(=O)NCC(C)(C)CNC(=O)C(=O)Nc4ccc(C)cc4)cc3)nc(NC3(c4ccc(Cl)cc4)CC3)n2)cc1` [Compound 3848] was run?
Its EC50 is 0.01 to 10 nM.

With `CCc1cccc(NC(=O)C(=O)NCC[C@H](NC(=O)c2ccc(Nc3nc(NC4(c5ccc(Cl)cc5)CC4)nc(OCC(F)(F)F)n3)cc2)C(=O)O)c1` [Compound 3614] as the compound, how does the EC50 read?
Its EC50 is 0.01 to 10 nM.

With `O=C(NCC[C@H](NC(=O)c1ccc(Nc2nc(NC3(c4ccc(Cl)cc4)CC3)nc(OCC(F)(F)F)n2)cc1)C(=O)O)C(=O)Nc1cccc(-c2ncc[nH]2)c1` [Compound 3634] as the compound, how does the EC50 read?
Its EC50 is 0.01 to 10 nM.

With `Cc1nc(-c2cccc(NC(=O)C(=O)NC[C@H](NC(=O)c3ccc(Nc4nc(NC5(c6ccc(Cl)cc6)CC5)nc(OCC(F)(F)F)n4)cc3)C(=O)Cl)c2)no1` [Compound 3785] as the compound, how does the EC50 read?
The EC50 was 0.01 to 10 nM.

For `CC(C)(C)c1ccc(Oc2ccc(NC(=O)C(=O)NC[C@H](NC(=O)c3ccc(Nc4nc(NC5(c6ccc(Cl)cc6)CC5)nc(OCC(F)(F)F)n4)cc3)C(=O)O)cn2)cc1` [Compound 3754], which EC50 is on record?
Its EC50 is 0.01 to 10 nM.

Same assay, conditions: Hepatitis C virus, Huh-7, read-out: Activity (EC50 class), HCV pseudoparticles (genotype 1a, H77C) in Huh7 cells; EC50 expressed as class A/B

Which EC50 does the source give for `Cc1ccc(NC(=O)C(=O)NCC(O)CNC(=O)c2ccc(Nc3nc(NC4(c5ccc(Cl)cc5)CC4)nc(OCC(F)(F)F)n3)cc2)cc1` (stereo not shown) [Compound 3367] here?
Its EC50 is 0.01 to 10 nM.

With `COC(=O)[C@H](CNC(=O)C(=O)Nc1ccc(-c2nc(OC)cc(OC)n2)cc1)NC(=O)c1ccc(Nc2nc(NC3(c4ccc(Cl)cc4)CC3)nc(OCC(F)(F)F)n2)cc1` [Compound 3185] as the compound, how does the EC50 read?
Its EC50 is 0.01 to 10 nM.

`N#Cc1ccc(-c2ccc(NC(=O)C(=O)NC/C(=N/C(=O)c3ccc(Nc4nc(NC5(c6ccc(Cl)cc6)CC5)nc(OCC(F)(F)F)n4)cc3)C(=O)O)cc2)cc1` [Compound 3170] was tested. Which EC50 did it give?
Its EC50 is 0.01 to 10 nM.

`COCc1ccc(NC(=O)C(=O)NCC[C@H](NC(=O)c2ccc(Nc3nc(NC4(c5ccc(Cl)cc5)CC4)nc(OCC(F)(F)F)n3)cc2)C(=O)OC)cc1` [Compound 3322] was tested. Which EC50 did it give?
Its EC50 is 0.01 to 10 nM.

`NC(=O)C(=O)NCC1(CNC(=O)c2ccc(Nc3nc(NC4(c5ccc(Cl)cc5)CC4)nc(OCC(F)(F)F)n3)cc2)CC1` [Compound 3175] was tested. Which EC50 did it give?
The EC50 was 0.01 to 10 nM.

`O=C(NC/C(=N/C(=O)c1ccc(Nc2nc(NC3(c4ccc(Cl)cc4)CC3)nc(OCC(F)(F)F)n2)cc1)C(=O)O)C(=O)Nc1ccc(C(=O)N2CCOCC2)cc1` [Compound 3166] was tested. Which EC50 did it give?
The EC50 was 0.01 to 10 nM.

Which EC50 does the source give for `CC(C)OC(=O)c1ccc(NC(=O)C(=O)NCC(C)(C)CNC(=O)c2ccc(Nc3nc(NC4(c5ccc(Cl)cc5)CC4)nc(OCC(F)(F)F)n3)cc2)cc1` [Compound 3259] here?
The EC50 was 0.01 to 10 nM.

For `COC(=O)[C@@H](CCNC(=O)C(=O)Nc1cccc(C(=O)Nc2ccccc2)c1)NC(=O)c1ccc(Nc2nc(NC3(c4ccc(Cl)cc4)CC3)nc(OCC(F)(F)F)n2)cc1` [Compound 3575], which EC50 is on record?
The EC50 was 0.01 to 10 nM.

With `O=C(NC/C(=N/C(=O)c1ccc(Nc2nc(NC3(c4ccc(Cl)cc4)CC3)nc(OCC(F)(F)F)n2)cc1)C(=O)O)C(=O)Nc1ccc(-c2nnco2)cc1` [Compound 3161] as the compound, how does the EC50 read?
The EC50 was 0.01 to 10 nM.

Which EC50 does the source give for `O=C(NCC[C@H](NC(=O)c1ccc(Nc2nc(NC3(c4ccc(Cl)cc4)CC3)nc(OCC(F)(F)F)n2)cc1)C(=O)O)C(=O)Nc1ccc(-n2ccc(C(F)(F)F)n2)cc1` [Compound 3228] here?
The EC50 was 0.01 to 10 nM.

Reference: patent US8916702B2 (priority 2012, dated 2014)
